Here are results for twelve compounds from patent US5389645A, “Substituted tyrosyl diamine amide compounds” (G. D. Searle & Co., priority 1992, dated 1995).

Counter-ions that a name gives are not always drawn.

The target of data set [1] is μ opioid receptors (Rattus norvegicus, UniProt P33535). Description: Opiate Binding Assay, displacement of 3[H]-DAMPGO from μ opioid receptors (rat forebrain membranes).
In data set [2] the test system is mice. Put plainly: Writhing Assay (phenylbenzoquinone-induced writhing, analgesia, s.c.). In kind it is in vivo, mouse. To be noted: for relative potency in the Writhing Assay: among compounds of the invention tested; for Number of Animals out of 10 Exhibiting Analgesia: subcutaneous, 5 mpk, PBQ, mice. An excerpt:
The "Writhing Assay" is one of the most widely-used experimental procedures for measuring the analgesic activity of different narcotic and nonnarcotic analgesic agents, and involves the continuous, chemically-induced pain of visceral origin to an animal, such as a mouse or rat. [Gyires et al., Arch. int. Pharmacodyn, 267, 131-140 (1984); C. Vander Wende et al., Fed. Proc., 15, 494 (1956); Koster et al., Fed. Proc., 18, 412 (1959); and Witken et al., J. Pharmacol. Exp. Ther., 153,400-408 (1961).] Chemicals which may be used to induce this pain include phenylbenzoquinone (PBQ) and acetic acid. As a result of the chemical irritation to the animal, a characteristic stretching and writhing of the animal (dorsiflexion of the animal's back, extension of its hindlimbs and the strong contraction of its abdominal musculature) will generally occur. […] Drugs which reduce the number of writhes of the animal appear to restore the normal nociceptive threshold of the animal.
This assay was conducted generally in the manner described by R. I. Taber, "Predictive Value of Analgesic Assays in Mice and Rats," Advances in Biochemical Psychopharmacology, 8, 191 (1974).
Two hundred CD Charles River mice, weighing 20 to 30 grams, were used in this assay.
Twenty-five minutes after subcutaneous administration to the mice of 10 mg per kilogram (mpk) of body weight of a tyrosyl diamine amide compound of the invention (hereinafter "test compound"), 0.1 mL per 10 g of body weight of a 0.025% w/v solution of phenylbenzoquinone (PBQ) was injected intraperitoneally into each mouse. Some mice were given saline in place of a test compound, and were used as a control group.
Five minutes later, each mouse was individually placed into a glass beaker for observation, and the number of writhes occurring during the following ten-minute period was counted.
A compound was considered to be "active" (to have produced analgesia in a mouse) if, after the administration of 10 mg per kilogram (mpk) of body weight of the compound to the mouse, the number of writhes elicited by a mouse injected with PBQ was equal to, or less than, one-half the median number of writhes recorded for the saline-treated control group of mice that day, as described by R. I. Taber, supra.
The standard initial screening dose of a test compound employed in this assay was 10 mpk […]. […] (The slopes of the dose-response curves for the compounds analyzed were compared as described by Tallarida and Murray, Manual of Pharmacologic Calculations, Page 11 (Springer Verlag, New York, 1981)).

In data set [3] the target is δ opioid receptors (Rattus norvegicus, UniProt P33533). Description: Opiate Binding Assay, displacement of 3[H]-DSLET from δ opioid receptors (rat forebrain membranes).
For data set [4] the following is noted: extended use; cited from earlier work.
For data set [5] the following is noted: antagonized by naloxone; cited from earlier work.
In data set [6] the test system is the same receptor sites as do the opiates. To be noted: cited from earlier work.

δ opioid receptors, sequence (P33533 whole entry): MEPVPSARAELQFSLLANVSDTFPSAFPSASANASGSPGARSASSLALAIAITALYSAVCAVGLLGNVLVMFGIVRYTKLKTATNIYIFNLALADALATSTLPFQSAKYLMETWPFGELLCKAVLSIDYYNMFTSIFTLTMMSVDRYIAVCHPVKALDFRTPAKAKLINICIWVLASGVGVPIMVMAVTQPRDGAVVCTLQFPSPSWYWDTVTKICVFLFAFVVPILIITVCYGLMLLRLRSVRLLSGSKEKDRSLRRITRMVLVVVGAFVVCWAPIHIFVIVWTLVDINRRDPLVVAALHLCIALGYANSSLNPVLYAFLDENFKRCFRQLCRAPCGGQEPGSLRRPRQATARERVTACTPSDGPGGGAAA
μ opioid receptors, sequence (P33535 whole entry): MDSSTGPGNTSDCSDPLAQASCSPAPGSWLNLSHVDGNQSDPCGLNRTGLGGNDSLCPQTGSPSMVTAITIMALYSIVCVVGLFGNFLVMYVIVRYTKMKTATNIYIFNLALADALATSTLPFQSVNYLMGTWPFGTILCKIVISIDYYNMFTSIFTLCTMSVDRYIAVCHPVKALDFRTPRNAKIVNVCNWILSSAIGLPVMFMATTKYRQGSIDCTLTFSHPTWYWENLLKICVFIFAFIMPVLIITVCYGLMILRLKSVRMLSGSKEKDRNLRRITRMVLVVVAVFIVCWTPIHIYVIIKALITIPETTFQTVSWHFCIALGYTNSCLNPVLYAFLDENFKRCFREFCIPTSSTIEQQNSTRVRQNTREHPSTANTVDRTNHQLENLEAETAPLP

As a reminder, the IC50 is the concentration that gives 50% inhibition. A low value points to greater potency in that assay. For the compound `Cc1cc(O)cc(C)c1C[C@H](N)C(=O)NC(C)(C)CNC(=O)c1ccc2ccccc2n1` [Example 6, N-[2-[[2S-amino-3-(4-hydroxy-2,6-dimethylphenyl)-1-oxopropyl]amino]-2-methylpropyl]-2-quinolinecarboxamide, hydrochloride], in data set [1], the IC50 amounted to 1.3 nM. Further, in data set [2], the “relative potency in the Writhing Assay” value is reported as “the most potent compounds of the invention tested in the Writhing Assay” and the “Number of Animals out of 10 Exhibiting Analgesia” value is given as 10/10. The IC50 in data set [3] amounted to 3.5 nM.
For the compound `Cc1cc(O)cc(C)c1C[C@H](N)C(=O)NCC(C)(C)NC(=O)NCc1ccccc1` [Example 11, αS-amino-4-hydroxy-2,6-dimethyl-N-[2-methyl-2-[[[(phenylmethyl)amino]carbonyl]amino]propyl]benzenepropanamide, hydrochloride], the half-maximal inhibitory concentration (IC50) turned out to be 58.6 nM in data set [1] and 32.8 nM in data set [3].
As for `Cc1cc(O)cc(C)c1C[C@H](N)C(=O)NC(C)(C)CNC(=O)c1cnc2ccccc2c1` [Example 8, N-[2-[[2S-amino-3-(4-hydroxy-2,6-dimethylphenyl)-1-oxopropyl]amino]-2-methylpropyl]-3-quinolinecarboxamide, hydrochloride], the 50% inhibitory concentration (IC50) is less than 10 nM in data set [1] and 25 nM in data set [3].
`CC(=O)Nc1ccc(O)cc1` [acetaminophen]: the undesirable side effects entry in data set [4] is reported as “liver toxicity”.
For the compound `Cc1cc(O)cc(C)c1C[C@H](N)C(=O)NC(C)(C)CNC(=O)NCc1ccccc1` [Example 10, αS-amino-N-[1,1-dimethyl-2-[[[(phenylmethyl)amino]carbonyl]amino]ethyl]-4-hydroxy.2,6-dimethylbenzenepropanamide, hydrochloride], the IC50 is less than 10 nM in data set [1] and 23.1 nM in data set [3].
In the case of `Cc1cc(O)cc(C)c1C[C@H](N)C(=O)NC(C)(C)CNC(=O)OCc1ccccc1` [Example 3, Phenylmethyl[2-[[2S-amino-3-(4-hydroxy-2,6-dimethylphenyl)-1-oxopropyl]amino]-2-methylpropyl]carbamate, monohydrochloride], the IC50 came to 62 nM in data set [1] and 10 nM in data set [3].
For `Cc1cc(O)cc(C)c1C[C@H](N)C(=O)NCC(C)(C)NC(=O)CCc1ccccc1` [Example 14, αS-Amino-4-hydroxy-2,6-dimethyl-N-[2-methyl-2-[(1-oxo-3-phenylpropyl)amino]propyl]benzenepropanamide, hydrochloride], the IC50 in data set [1] came out at 26.3 nM; in data set [3], 66.3 nM.
In the case of `CSCC[C@H](NC(=O)[C@H](Cc1ccccc1)NC(=O)CNC(=O)CNC(=O)[C@@H](N)Cc1ccc(O)cc1)C(=O)O` [methionine enkephalin, H2 N-Tyr-Gly-Gly-Phe-Met-OH], the morphine-like actions entry in data set [5] is listed as “exhibit some weak morphine-like actions”. For the same compound, the “binding to the same receptor sites as do the opiates” value in data set [6] is given as “bind to the same receptor sites as do the opiates”.
For `Cc1cc(O)cc(C)c1C[C@H](N)C(=O)NC(C)(C)CNC(=O)CCc1ccccc1` [Example 13, αS-amino-N-[1,1-dimethyl-2-[(1-oxo-3-phenylpropyl)amino]ethyl]-4-hydroxy-2,6-dimethylbenzenepropanamide, hydrochloride], in data set [1], the concentration for half-maximal inhibition (IC50) is less than 10 nM. Moreover, in data set [2], the “relative potency in the Writhing Assay” value was “the most potent compounds of the invention tested in the Writhing Assay” and the “Number of Animals out of 10 Exhibiting Analgesia” value is listed as 10/10. Also, in data set [3], the half-maximal inhibitory concentration (IC50) was 5.5 nM.
`Cc1cc(O)cc(C)c1C[C@H](N)C(=O)N1CCN(Cc2ccccc2)CC1` [Example 15, 1-[2S-Amino-3-(4-hydroxy-2,6-dimethylphenyl)-1-oxopropyl]-4-(phenylmethyl)piperazine, dihydrochloride]: the concentration for half-maximal inhibition (IC50) in data set [1] was found to be 4.5 nM; in data set [3], 14.9 nM.
Take `Cc1cc(O)cc(C)c1C[C@H](N)C(=O)NC(C)(C)CNC(=O)C#Cc1ccccc1` [Example 18, S-Amino-N-[1,1-dimethyl-2-[(1-oxo-3-phenyl-2-propynyl)amino]ethyl]-4-hydroxy-2,6-dimethylbenzenepropanamide, monohydrochloride]: the 50% inhibitory concentration (IC50) in data set [1] was less than 10 nM; in data set [3] it was 9.3 nM.
On to `CC(C)C[C@H](NC(=O)[C@H](Cc1ccccc1)NC(=O)CNC(=O)CNC(=O)[C@@H](N)Cc1ccc(O)cc1)C(=O)O` [leucine enkephalin, H2 N-Tyr-Gly-Gly-Phe-Leu-OH], for which the morphine-like actions result in data set [5] is reported as “exhibit some weak morphine-like actions”. Also, the “binding to the same receptor sites as do the opiates” value in data set [6] is listed as “bind to the same receptor sites as do the opiates”.
